For this data set, the system named is CCRIS mutagenicity, Ames/micronucleus/aberration tests. As to the kind of experiment: CCRIS mutagenicity studies.
The mark [1] stands for this setting: Test System: AMES SALMONELLA TYPHIMURIUM, Strain/Indicator: TA98, Metabolic Activation: NONE, Method: PREINCUBATION
Setting [2] is: Test System: AMES SALMONELLA TYPHIMURIUM, Strain/Indicator: TA100, Metabolic Activation: NONE, Method: PREINCUBATION

Active and inactive are the calls of the source. The rule behind the calls is not given here.

On to `C=CCN(CC=C)CC=C`, for which the mutagenic call was “inactive; negative” (Test System: AMES SALMONELLA TYPHIMURIUM, Strain/Indicator: TA98, Metabolic Activation: HAMSTER, LIVER, S-9, AROCLOR 1254 (10%), Method: PREINCUBATION); “inactive; negative” under setting [1]; “inactive; negative” (Test System: AMES SALMONELLA TYPHIMURIUM, Strain/Indicator: TA98, Metabolic Activation: RAT, LIVER, S-9, AROCLOR 1254 (10%), Method: PREINCUBATION); “inactive; negative” (Test System: AMES SALMONELLA TYPHIMURIUM, Strain/Indicator: TA100, Metabolic Activation: HAMSTER, LIVER, S-9, AROCLOR 1254 (10%), Method: PREINCUBATION); “inactive; negative” under setting [2]; “inactive; negative” (Test System: AMES SALMONELLA TYPHIMURIUM, Strain/Indicator: TA100, Metabolic Activation: RAT, LIVER, S-9, AROCLOR 1254 (10%), Method: PREINCUBATION). The mutagenic call reads like this: (Test System: AMES SALMONELLA TYPHIMURIUM, Strain/Indicator: TA1535, Metabolic Activation: HAMSTER, LIVER, S-9, AROCLOR 1254 (10%), Method: PREINCUBATION) “inactive; negative”; (Test System: AMES SALMONELLA TYPHIMURIUM, Strain/Indicator: TA1535, Metabolic Activation: NONE, Method: PREINCUBATION) “inactive; negative”; (Test System: AMES SALMONELLA TYPHIMURIUM, Strain/Indicator: TA1535, Metabolic Activation: RAT, LIVER, S-9, AROCLOR 1254 (10%), Method: PREINCUBATION) “inactive; negative”; (Test System: AMES SALMONELLA TYPHIMURIUM, Strain/Indicator: TA1537, Metabolic Activation: HAMSTER, LIVER, S-9, AROCLOR 1254 (10%), Method: PREINCUBATION) “inactive; negative”; (Test System: AMES SALMONELLA TYPHIMURIUM, Strain/Indicator: TA1537, Metabolic Activation: NONE, Method: PREINCUBATION) “inactive; negative”; (Test System: AMES SALMONELLA TYPHIMURIUM, Strain/Indicator: TA1537, Metabolic Activation: RAT, LIVER, S-9, AROCLOR 1254 (10%), Method: PREINCUBATION) “inactive; negative”.
For the molecule `CCOCC(O)COc1ccc(NC(=O)CC[S+](C)C)cc1` (stereo not drawn), the mutagenic call is “inactive; negative” (Test System: AMES SALMONELLA TYPHIMURIUM, Strain/Indicator: TA98, Metabolic Activation: NONE, Method: STANDARD PLATE); “inactive; negative” (Test System: AMES SALMONELLA TYPHIMURIUM, Strain/Indicator: TA98, Metabolic Activation: RAT, LIVER, S-9, Method: STANDARD PLATE); “inactive; negative” (Test System: AMES SALMONELLA TYPHIMURIUM, Strain/Indicator: TA100, Metabolic Activation: NONE, Method: STANDARD PLATE); “inactive; negative” (Test System: AMES SALMONELLA TYPHIMURIUM, Strain/Indicator: TA100, Metabolic Activation: RAT, LIVER, S-9, Method: STANDARD PLATE); “inactive; negative” (Test System: AMES SALMONELLA TYPHIMURIUM, Strain/Indicator: TA1535, Metabolic Activation: NONE, Method: STANDARD PLATE); “inactive; negative” (Test System: AMES SALMONELLA TYPHIMURIUM, Strain/Indicator: TA1535, Metabolic Activation: RAT, LIVER, S-9, Method: STANDARD PLATE). Moreover, the mutagenic call reads like this: (Test System: AMES SALMONELLA TYPHIMURIUM, Strain/Indicator: TA1537, Metabolic Activation: NONE, Method: STANDARD PLATE) “inactive; negative”; (Test System: AMES SALMONELLA TYPHIMURIUM, Strain/Indicator: TA1537, Metabolic Activation: RAT, LIVER, S-9, Method: STANDARD PLATE) “inactive; negative”; (Test System: AMES SALMONELLA TYPHIMURIUM, Strain/Indicator: TA1538, Metabolic Activation: NONE, Method: STANDARD PLATE) “inactive; negative”; (Test System: AMES SALMONELLA TYPHIMURIUM, Strain/Indicator: TA1538, Metabolic Activation: RAT, LIVER, S-9, Method: STANDARD PLATE) “inactive; negative”; (Test System: E. COLI, Strain/Indicator: WP2, Metabolic Activation: NONE, Method: STANDARD PLATE) “inactive; negative”; (Test System: E. COLI, Strain/Indicator: WP2, Metabolic Activation: RAT, LIVER, S-9, Method: STANDARD PLATE) “inactive; negative”. Moreover, the mutagenic call reads like this: (Test System: E. COLI, Strain/Indicator: WP2 UVRA, Metabolic Activation: NONE, Method: STANDARD PLATE) “inactive; negative”; (Test System: E. COLI, Strain/Indicator: WP2 UVRA, Metabolic Activation: RAT, LIVER, S-9, Method: STANDARD PLATE) “inactive; negative”.
Regarding `COC[C@@H]1C=C2c3cccc4c3c(cn4C)C[C@H]2N(C)C1`, the mutagenic call (Test System: AMES SALMONELLA TYPHIMURIUM, Strain/Indicator: TA100, Metabolic Activation: RAT, LIVER, S-9, AROCLOR 1254, Method: STANDARD PLATE) is “active; positive”.
`Cc1cnc2ccc3c(ncn3C)c2n1`: the mutagenic call under setting [1] is “inactive; negative”; the mutagenic call (Test System: AMES SALMONELLA TYPHIMURIUM, Strain/Indicator: TA98, Metabolic Activation: RAT, LIVER, S-9, AROCLOR 1254, Method: PREINCUBATION) was “inactive; negative”; the mutagenic call under setting [2] is “inactive; negative”; the mutagenic call (Test System: AMES SALMONELLA TYPHIMURIUM, Strain/Indicator: TA100, Metabolic Activation: RAT, LIVER, S-9, AROCLOR 1254, Method: PREINCUBATION) was “inactive; negative”.
As to `C=C1/C(=C\C=C2/CCC[C@]3(C)[C@@H]([C@H](C)CCCC(C)(C)O)CC[C@@H]23)C[C@@H](O)C[C@@H]1O`, the mutagenic call (End Point: IN VIVO CHROMOSOMAL ABERRATIONS, Test System: BONE MARROW CELLS, Species: RAT, Strain/Sex: WISTAR, Route: ORAL) is “inactive; negative”.
Regarding `CCOC(=O)/C=C/c1ccc([N+](=O)[O-])o1`, the mutagenic call under setting [1] was “active; positive”.
